The results in this text go back to patent publication US9340549B2, “Oxazolidinone compounds and derivatives thereof” (priority 2012, dated 2016).

One assay deals with Axin2 in SW480 cells. Briefly: cells. It is filed as cell-based. The settings on record: read-out: Axin2 384 IF EC50 IP. As to the method: Using a VPrep, 10 μL of compound/controls was transferred from the compound plate to 60 μL in the cell plate (final 0.5% DMSO, 70 μL). The mixture was incubated for 24 hours at 37° C. at 5% CO2.
The extra media was tapped out. 50 μL of 4% paraformaldehyde (Fisher, AA433689M), 0.1% Triton (Sigma, X100-100 ML) in PBS were added, and the mixture was incubated for 15 minutes at room temperature. […] The extra media was tapped out and to this was added 50 μL of buffer containing Axin2 Antibody (Sigma, SAB1100677-200 µL) at 1:10000 in PBS, 0.1% Tween-20, 1% Normal Goat Serum. The mixture was incubated for 2 hours at room temperature or overnight at 4° C. The cells were then washed twice with PBS, 0.1% Tween-20, and 1% Normal Goat Serum. […] The mixture was then incubated for 30 minutes at room temperature. The cells were then washed twice with PBS, 0.1% Tween-20, and 1% Normal Goat Serum. 50-100 μL PBS was added, and the mixture was covered with a plate seal (Fisher, NC9425162). An ArrayScan (a variation of the compartmental analysis protocol was optimized) was used to scan the plates, and data was analyzed using MEAN_RingSpotAvgIntenCh2). The Axin2 accumulation POC was calculated, and the EC50 was determined using Genedata Screener software to report Axin2 activity.

In assay [1] the target is 6×HIS-tankyrase 1 (1091-1325) (Homo sapiens (Human), UniProt O95271). Kind of assay: biochemical. It counts as biochemical.
Chain of 6×HIS-tankyrase 1 (1091-1325) (O95271 1091-1325): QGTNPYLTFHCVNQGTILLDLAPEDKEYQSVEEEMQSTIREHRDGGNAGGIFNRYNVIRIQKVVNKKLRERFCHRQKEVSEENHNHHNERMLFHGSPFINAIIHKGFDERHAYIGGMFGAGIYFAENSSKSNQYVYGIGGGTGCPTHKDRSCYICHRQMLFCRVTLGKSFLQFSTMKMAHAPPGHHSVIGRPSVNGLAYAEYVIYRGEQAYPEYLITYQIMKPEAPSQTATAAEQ
Assay [2] deals with total β-catenin in SW480 colorectal cells. Kind of assay: cells. It counts as cell-based. The method, boiled down: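 SW480 cells in growth medium (MEM alpha, 10% heat-inactivated FBS, 10 mM HEPES) treated with a 10-point, 3-fold dilution series of TNKS inhibitor for 40–48 h at 37 °C. Lysates run on an MSD sandwich immunoassay for total β-catenin, read by electrochemiluminescence.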

Where [3] appears, read: Homo sapiens, SW480, 24 h, SW480 cells, 24 hours.
[4] abbreviates: […] enzyme, 400 nM NAD, 60 minutes at room temperature, read-out: TNKS1 IP IC50.
The mark [5] stands for this setting: Homo sapiens, SW480 cells, 40 to 48 hours, top concentration 10 μM, read-out: SW480-Total β-Catenin IC50 IP.
[6] abbreviates: Homo sapiens, SW480, read-out: SW480-Total β-Catenin IC50 IP.

pEC50, pIC50: −log10 of the molar value. Where two headings read alike, the source gives them in different places.

In general, pEC50 refers to −log10 of the EC50, conventionally taken in molar units. The term pIC50 denotes the negative decadic logarithm of the IC50, by convention in mol/L. Turning to `CC1(C)OC(=O)N([C@H]2CC[C@H](c3cnc(N)c(Nc4ncccn4)c3)CC2)[C@@H]1c1ccccc1` [Example 13, (S)-3-((1r,4S)-4-(6-Amino-5-(pyrimidin-2-ylamino)pyridin-3-yl)cyclohexyl)-5,5-dimethyl-4-phenyloxazolidin-2-one], in the assay on Axin2 in SW480 cells (setting [3]), the pEC50 is less than 4.60. For the same compound, the values for the pIC50 in assay [1] (setting [4]) and in assay [2] (setting [5]) were 5.69 and less than 5.00, respectively.

`CC1(C)OC(=O)N(c2ccc(-c3nnc4ccc(Cl)nn34)cc2)[C@H]1c1ccccc1` [Example 68, (S)-3-(4-(6-chloro-[1,2,4]triazolo[4,3-b]pyridazin-3-yl)phenyl)-5,5-dimethyl-4-phenyloxazolidin-2-one]: the pEC50 in the assay on Axin2 in SW480 cells (setting [3]) is less than 4.60. The values for the pIC50 in assay [1] (setting [4]) and in assay [2] (setting [5]) were 5.70 and less than 5.00, respectively.

Take `C[C@]1(c2ccccc2)CN([C@H]2CC[C@H](n3c(=O)[nH]c4cnccc43)CC2)C(=O)O1` (single isomer, unassigned) [Example 91]: the pEC50 in the assay on Axin2 in SW480 cells (setting [3]) was 5.35. Besides, the pIC50 in assay [1] (setting [4]) is 8.05; in assay [2] (setting [5]), 5.44.

Regarding `CC1(C)OC(=O)N(c2ccc(-c3cnc(N)c(-c4cnnc(Cl)c4)c3)cc2)[C@H]1c1ccccc1` (single isomer, unassigned) [Example 101], the pEC50 with Axin2 in SW480 cells (setting [3]) is 6.71. The figures for the pIC50 in assay [1] (setting [4]) and in assay [2] (setting [5]) were 7.79 and 6.68, respectively.

For `COc1ccc(C2N(c3ccc(C(=O)Nc4cccc5cccnc45)cc3)C(=O)OC2(C)C)cc1` (racemic) [Example 111, (+/−)-(R/S)-4-(4-(4-methoxyphenyl)-5,5-dimethyl-2-oxooxazolidin-3-yl)-N-(quinolin-8-yl)benzamide], in the assay with Axin2 in SW480 cells (setting [3]), the pEC50 is 5.14. The pIC50 in assay [1] (0.25 nM enzyme, 400 nM NAD, 60 minutes at room temperature, read-out: TNKS1 IP IC50) was 6.20; in assay [2] (setting [5]), 5.61.

On to `CC1(C)OC(=O)N([C@H]2CC[C@@H](c3c[nH]c(=O)c(-c4ncccn4)c3)CC2)[C@H]1c1ccccc1` [Example 96, (S)-5,5-Dimethyl-3-((1s,4R)-4-(6-oxo-5-(pyrimidin-2-yl)-1,6-dihydropyridin-3-yl)cyclohexyl)-4-phenyloxazolidin-2-one], for which the pEC50 in the assay on Axin2 in SW480 cells (setting [3]) was less than 4.60. The values for the pIC50 in assay [1] (setting [4]) and in assay [2] (setting [5]) were 6.29 and less than 5.00, respectively.

`CC1(C)OC(=O)N([C@H]2CC[C@H](c3cc(-c4ncccn4)c[nH]c3=O)CC2)[C@H]1c1ccccc1` [Example 81, 3-(trans-4-((4S)-5,5-dimethyl-2-oxo-4-phenyl-1,3-oxazolidin-3-yl)cyclohexyl)-5-(2-pyrimidinyl)-2(1H)-pyridinone]: the pEC50 with Axin2 in SW480 cells (Homo sapiens, SW480, 24 h) was 6.08. In addition, the pIC50 in assay [1] (setting [4]) is 7.94; in assay [2] (setting [6]), 6.12.

On to `CC1(C)OC(=O)N([C@H]2CC[C@H](c3cc(C4=NCCCN4)c[nH]c3=O)CC2)[C@H]1c1ccccc1` [Example 130, (S)-5,5-dimethyl-3-((1r,4S)-4-(2-oxo-5-(1,4,5,6-tetrahydropyrimidin-2-yl)-1,2-dihydropyridin-3-yl)cyclohexyl)-4-phenyloxazolidin-2-one], for which, in the assay with Axin2 in SW480 cells (Homo sapiens, SW480, 24 h), the pEC50 was less than 4.60. Also, the pIC50 in assay [1] (setting [4]) was 6.11; in assay [2] (setting [6]), less than 5.00.

For `O=C(Nc1cccc2cccnc12)c1ccc(N2C(=O)OC3(CCCC3)C2c2ccccc2)cc1` (stereo not drawn) [Example 45, (R+S) 4-(2-oxo-4-phenyl-1-oxa-3-azaspiro[4.4]nonan-3-yl)-N-(quinolin-8-yl)benzamide], the pEC50 with Axin2 in SW480 cells (Homo sapiens, SW480, 24 h) was less than 4.60. Besides, the pIC50 in assay [1] (setting [4]) is 5.90; in assay [2] (setting [6]), less than 5.00.

Turning to `CC1(C)OC(=O)N(c2ccc(-c3cc(-c4ccccn4)cnn3)cc2)[C@H]1c1ccccc1` [Example 40, (S)-5,5-dimethyl-4-phenyl-3-(4-(5-(pyridin-2-yl)pyridazin-3-yl)phenyl)oxazolidin-2-one], the pEC50 with Axin2 in SW480 cells (Homo sapiens, SW480, 24 h) is less than 4.60. For the same compound, the pIC50 in assay [1] (setting [4]) is 6.21; in assay [2] (setting [6]) it was 5.02.

As for `CC1(C)OC(=O)N([C@H]2CC[C@H](N3C(=O)C(F)(F)c4ccccc43)CC2)[C@H]1c1ccccc1` [Example 48, (S)-3-((1s,4R)-4-(3,3-difluoro-2-oxoindolin-1-yl)cyclohexyl)-5,5-dimethyl-4-phenyloxazolidin-2-one], in the assay with Axin2 in SW480 cells (setting [3]), the pEC50 is less than 4.60. Further, the pIC50 is 6.21 in assay [1] (setting [4]) and less than 5.00 in assay [2] (setting [5]).

`CC1(C)OC(=O)N(c2ccc(-c3nnc4cc(-c5cncnc5)ccn34)cc2)[C@H]1c1ccccc1` [Example 66, (S)-5,5-dimethyl-4-phenyl-3-(4-(7-(pyrimidin-5-yl)-[1,2,4]triazolo[4,3-a]pyridin-3-yl)phenyl)oxazolidin-2-one]: the pEC50 with Axin2 in SW480 cells (setting [3]) was less than 4.60. Further, the pIC50 in assay [1] (setting [4]) is 5.71; in assay [2] (setting [5]), 5.03.

In the case of `CC1(C)OC(=O)N(c2ccc(-c3ccc[nH]c3=O)cc2)[C@H]1c1ccccc1` [Example 119, (S)-5,5-dimethyl-3-(4-(2-oxo-1,2-dihydropyridin-3-yl)phenyl)-4-phenyloxazolidin-2-one], the pEC50 in the assay on Axin2 in SW480 cells (setting [3]) is less than 4.60. The figures for the pIC50 in assay [1] (setting [4]) and in assay [2] (setting [5]) were 5.87 and less than 5.00, respectively.

On to `C[C@@]1(c2ccccc2)CN([C@H]2CC[C@H](n3c(=O)[nH]c4cnccc43)CC2)C(=O)O1` (single isomer, unassigned) [Example 90], for which, in the assay on Axin2 in SW480 cells (setting [3]), the pEC50 is less than 4.60. The pIC50 is 6.11 in assay [1] (setting [4]) and less than 5.00 in assay [2] (setting [5]).

In the case of `CC1(C)OC(=O)N(c2ccc(-n3cc(-c4ncccn4)ccc3=O)cc2)[C@H]1c1ccccc1` [Example 127, (S)-5,5-dimethyl-3-(4-(2-oxo-5-(pyrimidin-2-yl)pyridin-1(2H)-yl)phenyl)-4-phenyloxazolidin-2-one], the pEC50 in the assay with Axin2 in SW480 cells (setting [3]) was 5.20. For the same compound, the pIC50 in assay [1] (setting [4]) is 6.55; in assay [2] (setting [5]) it was 5.96.

Take `CC1(c2ccccc2)CN([C@H]2CC[C@H](n3c(=O)[nH]c4ccccc43)CC2)C(=O)O1` (stereo partly drawn) [Example 34, (R+S) 5-methyl-3-((1r,4r)-4-(2-oxo-2,3-dihydro-1H-benzo[d]imidazol-1-yl)cyclohexyl)-5-phenyloxazolidin-2-one]: the pEC50 with Axin2 in SW480 cells (Homo sapiens, SW480 cells, 24 hours) is 5.57. Moreover, the pIC50 in assay [1] (setting [4]) is 7.37; in assay [2] (setting [5]) it was 6.08.

Take `CC1(c2ccccc2)CN([C@H]2CC[C@@H](n3c(=O)[nH]c4cc(C#N)ccc43)CC2)C(=O)O1` (stereo partly drawn) [Example 92, 1-((1R,4r)-4-((R+S)-5-methyl-2-oxo-5-phenyloxazolidin-3-yl)cyclohexyl)-2-oxo-2,3-dihydro-1H-benzo[d]imidazole-5-carbonitrile]: the pEC50 in the assay with Axin2 in SW480 cells (setting [3]) is 6.74. Also, the pIC50 in assay [1] (setting [4]) was 8.31; in assay [2] (setting [5]), 6.75.

On to `CC1(C)OC(=O)N(c2ccc(C(=O)Nc3cccc4cccnc34)cc2)C1c1ccccc1F` (stereo not drawn) [Example 42, (R+S) 4-(4-(2-fluorophenyl)-5,5-dimethyl-2-oxooxazolidin-3-yl)-N-(quinolin-8-yl)benzamide], for which, in the assay on Axin2 in SW480 cells (setting [3]), the negative-log EC50 (pEC50) is 5.03. Also, the pIC50 in assay [1] (setting [4]) was 6.58; in assay [2] (setting [5]), 5.31.

Take “(S)-5,5-dimethyl-3-(4-(2-oxo-1H-imidazo[4,5-c]pyridin-3(2H)-yl)phenyl)-4-phenyloxazolidin-2-one [Example 15]”: in the assay on Axin2 in SW480 cells (SW480 cells, 24 hours), the pEC50 was 5.38. The pIC50 in assay [1] (setting [4]) is 6.98; in assay [2] (SW480 cells, 40 to 48 hours, top concentration 10 μM, read-out: SW480-Total β-Catenin IC50 IP), 6.00.

With `CC1(c2ccccc2)CN([C@H]2CC[C@H](n3c(=O)[nH]c4cnccc43)CC2)C(=O)O1` (stereo partly drawn) [Example 89, (R+S)-5-methyl-3-((1r,4R)-4-(2-oxo-2,3-dihydro-1H-imidazo[4,5-c]pyridin-1-yl)cyclohexyl)-5-phenyloxazolidin-2-one], the pEC50 in the assay with Axin2 in SW480 cells (setting [3]) is 5.15. For the same compound, the pIC50 in assay [1] (setting [4]) was 7.76; in assay [2] (setting [5]), 5.46.

On to `CC1(C)OC(=O)N([C@H]2CC[C@H](n3c(=O)oc4cccnc43)CC2)[C@H]1c1ccccc1` [Example 49, 3-(trans-4-((4S)-5,5-dimethyl-2-oxo-4-phenyl-1,3-oxazolidin-3-yl)cyclohexyl)[1,3]oxazolo[4,5-b]pyridin-2(3H)-one], for which the pEC50 in the assay with Axin2 in SW480 cells (setting [3]) is less than 4.60. Further, the pIC50 is 5.46 in assay [1] and 6.02 in assay [2] (setting [5]).

Regarding `CC1(C)OC(=O)N([C@H]2CC[C@H](c3nnc(-c4ccccc4)o3)CC2)C1c1ccccc1` (stereo partly drawn) [Example 84, 5,5-dimethyl-4-phenyl-3-((1r,4r)-4-(5-phenyl-1,3,4-oxadiazol-2-yl)cyclohexyl)oxazolidin-2-one], the pEC50 with Axin2 in SW480 cells (setting [3]) was 5.12. Moreover, the figures for the negative logarithm of the IC50 (pIC50) in assay [1] (setting [4]) and in assay [2] (setting [5]) were 6.33 and 5.31, respectively.
